# How the values were obtained:
# [1] = target: T1, Ephrin type-B receptor 1 (Homo sapiens) (UniProt P54762); experiment: Selectivity interaction (KinomeScan (DiscoverX)) EUB0000229b EPHB1; conditions: at 10 µM
# T1 sequence (whole entry): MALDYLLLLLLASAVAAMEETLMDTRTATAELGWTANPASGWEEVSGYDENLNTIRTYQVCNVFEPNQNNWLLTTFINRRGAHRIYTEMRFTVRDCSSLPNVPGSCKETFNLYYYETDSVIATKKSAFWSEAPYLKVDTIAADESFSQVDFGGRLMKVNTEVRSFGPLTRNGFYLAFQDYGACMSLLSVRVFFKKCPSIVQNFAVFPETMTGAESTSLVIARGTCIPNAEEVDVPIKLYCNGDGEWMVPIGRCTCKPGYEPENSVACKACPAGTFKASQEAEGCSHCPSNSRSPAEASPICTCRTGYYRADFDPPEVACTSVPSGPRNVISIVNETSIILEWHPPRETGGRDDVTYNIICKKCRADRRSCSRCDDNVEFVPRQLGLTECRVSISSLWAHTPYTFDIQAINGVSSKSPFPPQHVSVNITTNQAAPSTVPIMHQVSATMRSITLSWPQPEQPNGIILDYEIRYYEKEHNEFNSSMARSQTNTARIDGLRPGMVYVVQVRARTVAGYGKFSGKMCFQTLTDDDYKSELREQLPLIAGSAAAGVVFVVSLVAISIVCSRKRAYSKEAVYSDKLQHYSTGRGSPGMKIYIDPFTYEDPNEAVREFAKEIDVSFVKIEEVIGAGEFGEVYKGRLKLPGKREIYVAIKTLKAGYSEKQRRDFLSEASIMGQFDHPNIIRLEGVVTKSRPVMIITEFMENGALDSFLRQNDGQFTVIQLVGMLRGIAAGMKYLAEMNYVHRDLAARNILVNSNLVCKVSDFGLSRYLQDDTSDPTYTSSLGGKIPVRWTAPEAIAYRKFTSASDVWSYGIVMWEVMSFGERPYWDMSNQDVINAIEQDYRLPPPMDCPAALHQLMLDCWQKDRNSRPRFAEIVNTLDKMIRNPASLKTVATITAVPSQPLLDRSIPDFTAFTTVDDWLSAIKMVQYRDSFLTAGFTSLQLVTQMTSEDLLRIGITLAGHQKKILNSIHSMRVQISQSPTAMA
# [2] = target: Rho-associated protein kinase 1 (Homo sapiens) (UniProt Q13464); experiment: Selectivity interaction (ProQinase) EUB0000171b ROCK1
# [3] = target: Angiopoietin-1 receptor (Homo sapiens) (UniProt Q02763); experiment: Selectivity interaction (KinomeScan (DiscoverX)) EUB0001079a TEK; conditions: at 1 µM
# [4] = system: Tyrosine-protein kinase ABL1 (Homo sapiens), P00519 [T315I]; experiment: Selectivity interaction (KinomeScan (DiscoverX)) EUB0000666a ABL1; conditions: at 10 µM
# [5] = target: Phosphatidylinositol 4,5-bisphosphate 3-kinase catalytic subunit beta isoform (Homo sapiens) (UniProt P42338); experiment: Selectivity interaction (KinomeScan (DiscoverX)) EUB0001049a PIK3CB; conditions: at 1 µM
# [6] = target: T2, Tyrosine-protein kinase ITK/TSK (Homo sapiens) (UniProt Q08881); experiment: Selectivity interaction (KinomeScan (DiscoverX)) EUB0001049a ITK; conditions: at 1 µM
# T2 sequence (whole entry): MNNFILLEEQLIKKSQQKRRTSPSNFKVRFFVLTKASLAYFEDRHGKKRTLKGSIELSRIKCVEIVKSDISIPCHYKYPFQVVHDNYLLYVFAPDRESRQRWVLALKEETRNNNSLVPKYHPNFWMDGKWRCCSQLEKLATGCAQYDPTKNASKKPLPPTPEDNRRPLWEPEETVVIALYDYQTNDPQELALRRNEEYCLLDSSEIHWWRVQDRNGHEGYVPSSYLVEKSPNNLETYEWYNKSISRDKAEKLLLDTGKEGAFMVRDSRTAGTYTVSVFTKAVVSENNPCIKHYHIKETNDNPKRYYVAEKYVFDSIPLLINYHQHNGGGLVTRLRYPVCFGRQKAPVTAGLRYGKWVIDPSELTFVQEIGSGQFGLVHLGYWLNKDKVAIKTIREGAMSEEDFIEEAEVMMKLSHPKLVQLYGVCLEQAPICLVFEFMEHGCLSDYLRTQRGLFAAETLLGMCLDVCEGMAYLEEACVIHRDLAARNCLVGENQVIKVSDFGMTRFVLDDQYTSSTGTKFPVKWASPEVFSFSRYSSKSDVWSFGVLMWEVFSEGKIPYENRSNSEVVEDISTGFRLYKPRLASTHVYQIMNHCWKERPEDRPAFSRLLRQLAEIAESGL
# [7] = target: T3, Serine/threonine-protein kinase Nek11 (Homo sapiens) (UniProt Q8NG66); experiment: Selectivity interaction (KinomeScan (DiscoverX)) EUB0000695a NEK11; conditions: at 100 nM
# T3 sequence (whole entry): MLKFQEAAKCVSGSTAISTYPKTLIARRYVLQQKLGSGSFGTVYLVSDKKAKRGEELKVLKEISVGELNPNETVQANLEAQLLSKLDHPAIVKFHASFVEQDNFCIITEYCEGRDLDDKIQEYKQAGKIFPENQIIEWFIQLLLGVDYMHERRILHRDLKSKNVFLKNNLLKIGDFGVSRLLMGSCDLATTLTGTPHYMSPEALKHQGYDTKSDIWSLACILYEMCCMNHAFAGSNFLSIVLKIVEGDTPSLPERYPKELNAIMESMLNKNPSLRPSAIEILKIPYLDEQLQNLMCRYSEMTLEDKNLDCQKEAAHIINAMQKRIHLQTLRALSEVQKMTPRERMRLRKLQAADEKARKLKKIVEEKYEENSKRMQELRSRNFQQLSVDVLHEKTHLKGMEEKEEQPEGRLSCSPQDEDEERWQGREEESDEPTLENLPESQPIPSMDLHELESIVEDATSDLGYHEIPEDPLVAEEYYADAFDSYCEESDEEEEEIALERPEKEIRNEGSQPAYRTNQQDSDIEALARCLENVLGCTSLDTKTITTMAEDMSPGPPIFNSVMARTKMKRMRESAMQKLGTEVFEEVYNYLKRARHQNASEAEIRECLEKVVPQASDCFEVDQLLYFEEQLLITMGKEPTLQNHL
# [8] = target: Mast/stem cell growth factor receptor Kit (Homo sapiens, UniProt P10721); experiment: Selectivity interaction (KinomeScan (DiscoverX)) EUB0000695a KIT; conditions: at 100 nM
# [9] = target: Serine/threonine-protein kinase PLK2 (Homo sapiens, UniProt Q9NYY3); experiment: Selectivity interaction (KinomeScan (DiscoverX)) EUB0000695a PLK2; conditions: at 100 nM
# [10] = target: Activin receptor type-2A (Homo sapiens) (UniProt P27037); experiment: Selectivity interaction (KinomeScan (DiscoverX)) EUB0000595a ACVR2A; conditions: at 10 µM
# [11] = target: Casein kinase II subunit alpha (Homo sapiens, UniProt P68400); experiment: Selectivity interaction (KinomeScan (DiscoverX)) EUB0000618a CSNK2A1; conditions: at 10 µM
# [12] = target: Hepatocyte growth factor receptor (Homo sapiens, UniProt P08581); experiment: Selectivity interaction (Kinase counterscreening (biochemical assay)) EUB0000604a MET
# Sequence of Hepatocyte growth factor receptor (P08581 whole entry): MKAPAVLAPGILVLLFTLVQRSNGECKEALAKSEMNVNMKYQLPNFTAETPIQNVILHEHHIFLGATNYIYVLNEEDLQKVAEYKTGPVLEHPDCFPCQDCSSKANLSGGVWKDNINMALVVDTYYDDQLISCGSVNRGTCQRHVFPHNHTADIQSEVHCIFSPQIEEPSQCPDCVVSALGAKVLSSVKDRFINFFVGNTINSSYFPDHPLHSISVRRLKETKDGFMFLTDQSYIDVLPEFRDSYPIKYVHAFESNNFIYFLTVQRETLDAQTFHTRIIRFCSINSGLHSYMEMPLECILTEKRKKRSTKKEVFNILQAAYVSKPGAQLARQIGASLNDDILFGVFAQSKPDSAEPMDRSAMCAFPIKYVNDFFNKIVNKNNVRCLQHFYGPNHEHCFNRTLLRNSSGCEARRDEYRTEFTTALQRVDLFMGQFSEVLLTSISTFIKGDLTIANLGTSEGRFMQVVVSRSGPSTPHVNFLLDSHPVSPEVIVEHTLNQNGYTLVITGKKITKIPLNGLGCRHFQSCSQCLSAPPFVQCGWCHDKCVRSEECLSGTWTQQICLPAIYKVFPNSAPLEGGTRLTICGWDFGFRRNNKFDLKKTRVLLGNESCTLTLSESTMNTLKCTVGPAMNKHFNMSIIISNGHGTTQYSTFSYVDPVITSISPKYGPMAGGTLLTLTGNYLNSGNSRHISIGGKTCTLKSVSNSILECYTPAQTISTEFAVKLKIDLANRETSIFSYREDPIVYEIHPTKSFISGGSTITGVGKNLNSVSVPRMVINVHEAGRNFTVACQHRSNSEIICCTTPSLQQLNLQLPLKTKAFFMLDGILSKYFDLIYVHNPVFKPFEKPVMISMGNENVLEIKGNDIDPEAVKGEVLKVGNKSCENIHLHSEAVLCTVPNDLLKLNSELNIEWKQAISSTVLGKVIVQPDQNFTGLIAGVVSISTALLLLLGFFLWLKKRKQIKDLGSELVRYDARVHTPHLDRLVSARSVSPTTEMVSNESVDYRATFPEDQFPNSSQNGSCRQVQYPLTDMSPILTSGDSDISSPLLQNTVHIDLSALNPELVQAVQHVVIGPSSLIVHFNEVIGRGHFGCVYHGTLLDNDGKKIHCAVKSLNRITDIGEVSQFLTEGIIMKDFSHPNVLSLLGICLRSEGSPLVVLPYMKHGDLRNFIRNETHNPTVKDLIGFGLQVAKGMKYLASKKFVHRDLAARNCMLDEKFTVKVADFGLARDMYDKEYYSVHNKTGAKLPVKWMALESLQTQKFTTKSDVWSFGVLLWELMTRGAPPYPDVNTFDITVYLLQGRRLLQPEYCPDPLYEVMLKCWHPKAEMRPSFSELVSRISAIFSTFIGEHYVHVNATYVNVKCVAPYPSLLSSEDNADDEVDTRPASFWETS
# Sequence of Rho-associated protein kinase 1 (Homo sapiens) (Q13464 2-1354 limits assumed): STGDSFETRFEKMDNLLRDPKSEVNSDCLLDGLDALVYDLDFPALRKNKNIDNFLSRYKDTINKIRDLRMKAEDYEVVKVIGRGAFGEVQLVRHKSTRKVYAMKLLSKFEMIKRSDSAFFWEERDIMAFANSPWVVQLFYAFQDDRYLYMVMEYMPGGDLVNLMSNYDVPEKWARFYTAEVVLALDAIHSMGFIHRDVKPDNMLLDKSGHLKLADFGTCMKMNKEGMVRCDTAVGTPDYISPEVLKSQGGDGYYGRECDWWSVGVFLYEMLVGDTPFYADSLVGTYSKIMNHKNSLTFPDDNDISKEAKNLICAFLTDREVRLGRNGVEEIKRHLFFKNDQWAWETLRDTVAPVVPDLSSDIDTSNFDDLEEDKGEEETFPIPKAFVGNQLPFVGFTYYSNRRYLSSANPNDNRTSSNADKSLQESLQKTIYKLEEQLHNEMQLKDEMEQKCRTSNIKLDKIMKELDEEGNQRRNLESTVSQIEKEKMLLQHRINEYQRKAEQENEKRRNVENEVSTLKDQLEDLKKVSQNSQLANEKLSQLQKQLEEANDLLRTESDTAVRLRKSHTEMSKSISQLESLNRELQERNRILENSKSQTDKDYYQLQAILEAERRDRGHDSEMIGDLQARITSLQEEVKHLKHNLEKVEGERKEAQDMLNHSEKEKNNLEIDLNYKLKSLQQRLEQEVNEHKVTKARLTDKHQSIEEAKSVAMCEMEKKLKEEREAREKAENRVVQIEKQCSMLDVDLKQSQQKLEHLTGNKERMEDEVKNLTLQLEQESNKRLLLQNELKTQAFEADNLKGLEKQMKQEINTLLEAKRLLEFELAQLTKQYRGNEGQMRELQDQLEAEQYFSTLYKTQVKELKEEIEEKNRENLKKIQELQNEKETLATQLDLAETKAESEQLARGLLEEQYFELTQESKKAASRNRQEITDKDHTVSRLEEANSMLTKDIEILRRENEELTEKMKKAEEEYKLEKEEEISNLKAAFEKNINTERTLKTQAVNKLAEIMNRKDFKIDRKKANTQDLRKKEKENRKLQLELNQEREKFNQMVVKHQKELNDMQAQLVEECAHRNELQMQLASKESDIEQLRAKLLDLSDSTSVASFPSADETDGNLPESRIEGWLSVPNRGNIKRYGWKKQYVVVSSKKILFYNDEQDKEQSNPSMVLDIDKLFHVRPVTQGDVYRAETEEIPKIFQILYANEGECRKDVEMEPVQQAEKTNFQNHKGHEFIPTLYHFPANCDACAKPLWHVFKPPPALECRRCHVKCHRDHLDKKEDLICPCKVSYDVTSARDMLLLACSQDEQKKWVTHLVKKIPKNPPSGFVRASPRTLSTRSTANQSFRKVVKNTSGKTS
# Sequence of Angiopoietin-1 receptor (Homo sapiens) (Q02763 whole entry): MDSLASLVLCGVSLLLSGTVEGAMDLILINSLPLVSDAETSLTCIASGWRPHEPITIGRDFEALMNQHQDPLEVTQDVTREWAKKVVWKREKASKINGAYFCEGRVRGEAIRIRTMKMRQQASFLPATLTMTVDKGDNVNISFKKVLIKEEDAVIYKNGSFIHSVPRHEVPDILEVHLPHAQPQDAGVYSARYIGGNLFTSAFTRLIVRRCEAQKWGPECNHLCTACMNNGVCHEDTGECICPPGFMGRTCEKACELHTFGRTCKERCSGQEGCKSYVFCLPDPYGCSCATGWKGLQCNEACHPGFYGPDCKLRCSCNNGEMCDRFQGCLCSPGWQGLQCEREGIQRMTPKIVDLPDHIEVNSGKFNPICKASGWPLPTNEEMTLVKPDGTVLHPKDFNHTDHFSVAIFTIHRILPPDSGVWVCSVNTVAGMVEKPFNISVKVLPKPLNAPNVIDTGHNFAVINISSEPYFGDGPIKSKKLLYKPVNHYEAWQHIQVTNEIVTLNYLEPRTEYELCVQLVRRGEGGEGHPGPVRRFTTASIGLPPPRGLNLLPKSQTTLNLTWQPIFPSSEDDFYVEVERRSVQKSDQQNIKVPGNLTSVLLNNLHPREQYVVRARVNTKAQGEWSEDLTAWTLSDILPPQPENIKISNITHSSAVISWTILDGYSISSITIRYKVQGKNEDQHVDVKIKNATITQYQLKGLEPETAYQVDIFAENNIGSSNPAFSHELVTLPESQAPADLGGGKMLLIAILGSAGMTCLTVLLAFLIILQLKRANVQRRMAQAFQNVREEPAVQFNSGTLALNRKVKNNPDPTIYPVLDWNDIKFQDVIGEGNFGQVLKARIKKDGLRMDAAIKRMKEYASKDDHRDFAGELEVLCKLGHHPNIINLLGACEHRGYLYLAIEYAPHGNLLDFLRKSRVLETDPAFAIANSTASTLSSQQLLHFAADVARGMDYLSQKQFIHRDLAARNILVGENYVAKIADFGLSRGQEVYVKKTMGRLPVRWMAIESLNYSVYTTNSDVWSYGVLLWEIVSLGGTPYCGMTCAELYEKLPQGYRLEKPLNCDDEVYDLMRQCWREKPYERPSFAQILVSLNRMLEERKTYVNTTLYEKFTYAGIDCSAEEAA
# Sequence of Activin receptor type-2A (Homo sapiens) (P27037 whole entry): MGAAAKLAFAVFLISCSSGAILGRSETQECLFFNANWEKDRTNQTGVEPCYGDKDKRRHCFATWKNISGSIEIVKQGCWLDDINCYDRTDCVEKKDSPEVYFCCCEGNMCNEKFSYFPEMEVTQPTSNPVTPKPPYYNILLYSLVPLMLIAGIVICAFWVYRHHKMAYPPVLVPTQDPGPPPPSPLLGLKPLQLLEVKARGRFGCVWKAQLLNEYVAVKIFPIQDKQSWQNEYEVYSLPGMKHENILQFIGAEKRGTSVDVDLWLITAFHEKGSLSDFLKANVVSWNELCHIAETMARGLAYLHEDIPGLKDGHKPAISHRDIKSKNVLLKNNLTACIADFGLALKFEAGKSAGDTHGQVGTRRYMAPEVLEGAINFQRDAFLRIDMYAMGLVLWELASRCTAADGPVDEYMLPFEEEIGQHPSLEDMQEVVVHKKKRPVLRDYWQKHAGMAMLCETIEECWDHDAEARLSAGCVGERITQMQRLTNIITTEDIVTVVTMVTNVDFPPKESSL
# Sequence of Casein kinase II subunit alpha (P68400 whole entry, looked up): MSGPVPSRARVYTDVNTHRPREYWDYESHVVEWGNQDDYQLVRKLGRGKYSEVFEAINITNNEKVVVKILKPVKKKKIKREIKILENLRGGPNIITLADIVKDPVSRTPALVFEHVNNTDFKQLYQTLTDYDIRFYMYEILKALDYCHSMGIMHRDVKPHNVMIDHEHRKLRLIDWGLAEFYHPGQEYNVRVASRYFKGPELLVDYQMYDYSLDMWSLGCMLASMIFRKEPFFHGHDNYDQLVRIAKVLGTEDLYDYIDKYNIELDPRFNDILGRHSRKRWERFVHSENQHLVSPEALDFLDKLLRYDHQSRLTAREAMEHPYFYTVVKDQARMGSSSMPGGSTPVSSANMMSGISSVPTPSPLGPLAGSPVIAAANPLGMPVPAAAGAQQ
smiles,measurement,setting,value
COc1cc(N(C)c2ccnc3ccc(C(F)(F)F)cc23)cc(OC)c1OC,% binding,[1],97%
C=CC(=O)Nc1cccc(C(=O)Nc2ccc(Nc3cc(-c4[nH]c(SC)nc4C)ccn3)cc2)c1,% of control,[2]; at 1 µM,104%
same,% of control,[2]; at 5 µM,80%
Nc1cnc(N2CCc3cc(S(=O)(=O)Nc4c(F)cc(Cl)cc4F)cc(N4CCCC4=O)c32)nc1 [TP-020n],% of control,[3],78%
O=C(NOC[C@H](O)CO)c1ccc(F)c(F)c1Nc1ccc(I)cc1F,% of control,[4],86%
COc1cc(Nc2nc(C)cc(-c3cnn4nc(OC)ccc34)n2)cc(C(F)(F)F)c1,% of control,[5],55%
same,% of control,[6],82%
Cc1cc(F)c(C(=O)Nc2cccc(-c3nncn3C(C)C)n2)cc1-n1cnc(C2CC2)c1,% of control,[7],78%
same,% of control,[8],100%
same,% of control,[9],88%
COCC(=O)NC/C=C/c1ccc2ncnc(Nc3ccc(Oc4ccc(C)nc4)c(C)c3)c2c1 [CP-724714],% of control,[10],100%
O[C@H]1CC[C@H](Nc2ncc3nc(Nc4c(F)cc(F)cc4F)n([C@H]4CCOC4)c3n2)CC1,% of control,[11],100%
Cc1cnc(Nc2ccc(F)cc2Cl)nc1-c1c[nH]c(C(=O)N[C@H](CO)c2cccc(Cl)c2)c1,Ki,[12],> 4 µM
